Here are results for 51 molecules from ChEMBL document CHEMBL1201862, “PubChem BioAssay data set” (2004).

As a reminder, the AC50 is the concentration giving half of the maximal activity seen.

A short description of data set [1]: C. albicans growth with fluconazole, confirmation, fluorescence, retest (AID 2467). Type of data set: functional, cell-based.
Data set [2] can be described thus: NIH-3T3 fibroblast cytotoxicity, dose response, cytotoxicity control, cell-based, fluorescence, Alamar Blue, secondary assay (AID 2327).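 Further: NIH-3T3 mouse fibroblasts cultured with fluconazole at 8 µg/mL.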 Type of data set: functional. Background: Resazurin is reduced to fluorescent resorufin, in cell work by metabolically active cells.
The nature of data set [3]: cytotoxicity toward NIH3T3 fibroblasts, dose response, counter-screen, cell-based, ATP luminescence, mouse fibroblasts (AID 2010).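 Further: cells exposed to compound for about 90 hours before reading.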 Format: functional.
Data set [4] is described as follows: inhibitors of intracellular T. cruzi replication, confirmation, NIH3T3 host cells, beta-gal luminescence (AID 2044).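 Further: intracellular parasites grown in NIH/3T3 mouse fibroblasts as host cells; luminescent beta-galactosidase reporter signal from transgenic T. cruzi replicating inside host cells; inhibitors lower the luminescence signal.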 Format: functional, cell-based.
For the next data set, the target named is Cytochrome P450 2C9 (Homo sapiens, UniProt P11712).
For the next data set, the target named is Cytochrome P450 2C19 (Homo sapiens, UniProt P33261). As to the kind of experiment: Cytochrome panel assay with activity outcomes. Panel member name: p450-cyp2c19 Compounds with AC50 equal or less than 10 uM are considered active. Type of data set: functional.
A further data set addresses T1, Cytochrome P450 1A2 (Homo sapiens, UniProt P05177).
T1 sequence (P05177 whole entry): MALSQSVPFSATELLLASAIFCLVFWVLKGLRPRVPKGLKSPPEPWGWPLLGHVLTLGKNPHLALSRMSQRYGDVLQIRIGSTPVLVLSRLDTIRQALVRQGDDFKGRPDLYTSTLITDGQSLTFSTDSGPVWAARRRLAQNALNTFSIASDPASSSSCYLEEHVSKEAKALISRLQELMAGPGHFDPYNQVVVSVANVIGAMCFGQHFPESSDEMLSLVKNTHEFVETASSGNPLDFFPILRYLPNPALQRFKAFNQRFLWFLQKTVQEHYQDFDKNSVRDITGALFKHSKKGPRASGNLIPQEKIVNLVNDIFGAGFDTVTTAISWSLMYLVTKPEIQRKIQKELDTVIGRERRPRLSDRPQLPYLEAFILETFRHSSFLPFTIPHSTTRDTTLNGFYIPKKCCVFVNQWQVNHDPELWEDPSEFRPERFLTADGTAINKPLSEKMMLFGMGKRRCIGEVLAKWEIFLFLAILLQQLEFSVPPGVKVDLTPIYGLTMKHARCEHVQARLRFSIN

The target in data set [5] is T2, Corticotropin-releasing factor receptor 2/Corticotropin-releasing factor-binding protein (Homo sapiens, UniProt P24387+Q13324).
T2 sequence (Q13324 whole entry): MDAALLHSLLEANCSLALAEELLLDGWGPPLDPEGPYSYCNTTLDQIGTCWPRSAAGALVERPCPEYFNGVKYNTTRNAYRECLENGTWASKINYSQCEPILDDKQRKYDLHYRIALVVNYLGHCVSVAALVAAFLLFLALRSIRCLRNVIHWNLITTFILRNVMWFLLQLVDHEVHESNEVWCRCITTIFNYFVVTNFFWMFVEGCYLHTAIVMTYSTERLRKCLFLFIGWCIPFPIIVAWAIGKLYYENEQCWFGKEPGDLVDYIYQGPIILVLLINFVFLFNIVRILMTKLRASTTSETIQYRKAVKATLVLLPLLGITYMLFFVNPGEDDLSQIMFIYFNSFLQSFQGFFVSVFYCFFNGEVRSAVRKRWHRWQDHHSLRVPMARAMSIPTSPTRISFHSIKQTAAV
T2 sequence (P24387 whole entry): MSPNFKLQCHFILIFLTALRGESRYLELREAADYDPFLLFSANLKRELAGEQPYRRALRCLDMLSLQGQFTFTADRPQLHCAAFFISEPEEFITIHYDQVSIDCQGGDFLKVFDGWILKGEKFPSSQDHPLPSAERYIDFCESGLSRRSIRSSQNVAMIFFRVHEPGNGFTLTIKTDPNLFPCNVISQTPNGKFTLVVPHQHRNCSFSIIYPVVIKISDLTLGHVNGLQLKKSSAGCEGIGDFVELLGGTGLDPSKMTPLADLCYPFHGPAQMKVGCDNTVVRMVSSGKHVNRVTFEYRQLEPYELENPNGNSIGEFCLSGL
As to the kind of experiment: activators of CRF receptor 2 with binding protein – uHTS hits, confirmation (AID 602473). Type of data set: functional. The settings on record: read-out: EC50_Mean.

The source made the active and inactive calls.

Sequence of Cytochrome P450 2C9 (P11712 whole entry): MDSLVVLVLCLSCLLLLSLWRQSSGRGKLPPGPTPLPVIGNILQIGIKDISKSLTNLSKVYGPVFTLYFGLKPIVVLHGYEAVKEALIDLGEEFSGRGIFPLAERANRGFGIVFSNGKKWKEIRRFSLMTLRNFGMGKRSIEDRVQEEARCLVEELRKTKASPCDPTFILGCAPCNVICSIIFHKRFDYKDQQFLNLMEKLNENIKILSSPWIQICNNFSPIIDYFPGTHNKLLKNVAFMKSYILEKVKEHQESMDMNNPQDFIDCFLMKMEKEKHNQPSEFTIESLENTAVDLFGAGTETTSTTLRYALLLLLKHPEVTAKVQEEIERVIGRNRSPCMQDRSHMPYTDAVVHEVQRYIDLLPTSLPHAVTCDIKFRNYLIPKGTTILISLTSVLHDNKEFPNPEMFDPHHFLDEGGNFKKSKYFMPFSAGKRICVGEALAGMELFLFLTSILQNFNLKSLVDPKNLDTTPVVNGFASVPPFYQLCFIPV
Sequence of Cytochrome P450 2C19 (P33261 whole entry): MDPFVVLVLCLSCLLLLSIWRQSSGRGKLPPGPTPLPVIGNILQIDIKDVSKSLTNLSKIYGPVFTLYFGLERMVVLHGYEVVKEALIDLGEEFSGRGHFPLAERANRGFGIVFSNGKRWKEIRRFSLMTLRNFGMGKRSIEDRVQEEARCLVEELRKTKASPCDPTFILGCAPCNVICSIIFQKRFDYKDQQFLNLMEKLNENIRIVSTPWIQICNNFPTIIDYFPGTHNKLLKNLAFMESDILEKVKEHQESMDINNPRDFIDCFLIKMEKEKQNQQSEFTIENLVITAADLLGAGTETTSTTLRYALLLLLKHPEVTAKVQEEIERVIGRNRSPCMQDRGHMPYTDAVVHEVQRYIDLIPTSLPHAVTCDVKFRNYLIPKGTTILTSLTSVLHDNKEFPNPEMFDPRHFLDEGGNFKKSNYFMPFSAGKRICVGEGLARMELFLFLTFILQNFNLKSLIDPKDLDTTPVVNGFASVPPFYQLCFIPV

As for `Cc1ccc(C(=O)CC(=O)c2ccc(C(C)(C)C)cc2)cc1`, the EC50 is > 38 µM (not active) in data set [1] and > 160 µM (inactive) in data set [2].

`O=[N+]([O-])c1ccc2[nH]c(-[n+]3c(-c4ccccc4)cc(-c4ccccc4)cc3-c3ccccc3)nc2c1`: the EC50 in data set [3] was > 60 µM (not active); in data set [4], 1.18 µM (active).

`CCCCNC(=O)c1cn(C)c2ccc(S(=O)(=O)N3CCCC3)cc2c1=O`: in data set [2], the EC50 is > 150 µM (inactive).

Consider `CC(C)CNS(=O)(=O)c1cc(C(=O)N2CC(C)OC(C)C2)c(Cl)cc1Cl` (centres undefined), for which the AC50 at Cytochrome P450 2C9 and at Cytochrome P450 2C19 (read-out: AC50) was 25.1 µM (inconclusive) in each case.

Take `Cc1cccc(C)c1NC(=S)NC(=O)CCc1ccccc1`: the values for the AC50 at Cytochrome P450 2C9 and on Cytochrome P450 1A2 were 25.1 µM (inconclusive) and 22.4 µM (inconclusive), respectively.

With `O=C(C1=C[C@@H](c2csc3ccccc23)C[C@@H](OCc2ccc(CO)cc2)O1)N1CCN(Cc2ccccc2)CC1`, the values for the EC50 in data set [3] and in data set [4] were > 60 µM (not active) and 0.888 µM (active), respectively.

As for `O=C(c1ccc2c(=O)n(Cc3ccco3)c(=S)[nH]c2c1)N1CCN(c2ccccc2)CC1`, the figures for the AC50 on Cytochrome P450 2C9 and on Cytochrome P450 1A2 were 25.1 µM (inconclusive) and 3.16 µM (inconclusive), respectively.

Turning to `N=C(N)NCc1cccc(I)c1` [IOBENGUANE], the AC50 at Cytochrome P450 1A2 was 12.6 µM (inconclusive).

Turning to `CC(CCc1ccccc1)NC(=O)C(=O)NCCO` (centres undefined), the AC50 at Cytochrome P450 2C9 is 0.794 µM (inconclusive).

For `CC(=O)NC(NC(C)=O)c1ccc(Br)cc1`, the AC50 at Cytochrome P450 1A2 was 10 µM (inconclusive).

Consider `COc1ccccc1N(CC(=O)NCC1CCCO1)C(=O)CNS(=O)(=O)c1ccc(C)cc1` (centres undefined), for which the AC50 was 31.6 µM (inconclusive) at Cytochrome P450 2C9 and 35.5 µM (inconclusive) on Cytochrome P450 2C19 (read-out: AC50).

As to `COC(=O)c1cc2c(ccn2-c2ccc(F)cc2)n1Cc1ccc(OC(C)=O)cc1`, the results for the EC50 in data set [3] and in data set [4] were > 60 µM (not active) and 2.84 µM (active), respectively.

On to `OCC[n+]1ccc(/C=C/c2c[nH]c3ccccc23)cc1`, for which the EC50 in data set [5] is 8.55 µM (active).

With `CCc1ccc(-n2nnnc2SCC(=O)Nc2ccc(NC(C)=O)cc2)cc1`, the EC50 in data set [3] was > 60 µM (not active); in data set [4], 2.19 µM (active).

Regarding `Cc1ccc(COc2coc(CO)cc2=O)cc1`, the AC50 on Cytochrome P450 1A2 was 15.8 µM (inconclusive).

In the case of `COc1ccc(CN2CCN(Cc3nc4ccccc4s3)CC2CCO)c(C)c1C` (centres undefined), the EC50 was > 60 µM (inconclusive) in data set [3] and 0.132 µM (active) in data set [4].

On to `COCC(=O)N1CCC2(CC1)CCN(c1cccc(-c3ccccc3)c1)CC2`, for which, on Cytochrome P450 2C19 (read-out: AC50), the AC50 was 39.8 µM (inconclusive).

Consider `Cc1cc(C(=O)N[C@@H](c2ccccc2)[C@]2(C)C[C@H]2[C@@H](C)C(=O)Nc2ccc3ccccc3c2)n(C)n1`, for which the AC50 on Cytochrome P450 1A2 was 12.6 µM (inconclusive).

As for `CC(C)(Oc1ccc([C@@H]2CC2(Cl)Cl)cc1)C(=O)O`, at Cytochrome P450 2C9, the AC50 is 31.6 µM (inconclusive).

Consider `O=C(CSc1nc(=O)n2ccccc2n1)N1N=C(c2cccs2)CC1c1ccc(F)cc1` (centres undefined), for which the EC50 in data set [3] is > 60 µM (not active); in data set [4] it was 1.51 µM (active).

Consider `Cc1cccc2cc(CN(Cc3cccnc3)C(=O)c3ccccc3F)c(Cl)nc12`, for which the EC50 in data set [3] is > 60 µM (not active); in data set [4] it was 0.204 µM (active).

Consider `CCC(=O)Nc1cccc(NC(=O)c2cccc([N+](=O)[O-])c2)c1`, for which the results for the AC50 on Cytochrome P450 2C9 and on Cytochrome P450 2C19 were 17.8 µM (inconclusive) and “inconclusive”, respectively.

For `Cc1cccc2c1Oc1ccccc1[C@@H]2NC(=O)c1ccc([N+](=O)[O-])cc1`, the AC50 on Cytochrome P450 2C9 is 7.94 µM (inconclusive).

Consider `O=C(Nc1ccncc1)Nc1cc(Cl)ccc1Cl`, for which the values for the EC50 in data set [3] and in data set [4] were > 30 µM (not active) and 0.469 µM (active), respectively.

Consider `CC1=CC(=C(C#N)c2nc3ccccc3s2)C=C(C)N1c1ccc(F)cc1F`, for which, in data set [5], the EC50 is 10.2 µM (active).

In the case of `CC(C)CN(C(=O)c1cc([N+](=O)[O-])cc([N+](=O)[O-])c1)C1CCS(=O)(=O)C1` (centres undefined), the EC50 in data set [3] is > 30 µM (not active); in data set [4] it was 1.31 µM (active).

As for `COCCn1c(=O)c(-c2cccc(C#N)c2)nc2cnc(Oc3ccccc3)nc21`, on Cytochrome P450 2C19 (read-out: AC50), the AC50 was 39.8 µM (inconclusive).

As to `COc1ccc(OC)c(CN2CCN(C(=O)CCNC(=O)c3ccc(Br)cc3)CC2)c1`, the EC50 was > 60 µM (not active) in data set [3] and 0.563 µM (active) in data set [4].

`Cc1onc(-c2ccccc2)c1CNC(=O)Nc1ccc(C(F)(F)F)cc1`: the EC50 in data set [3] was > 60 µM (not active); in data set [4], 4.33 µM (active).

Turning to `COCCCn1c(SCc2ccccc2)nc2cc(OC)c(OC)cc2c1=N`, the figures for the EC50 in data set [3] and in data set [4] were 11.5 µM (active) and 1.69 µM (active), respectively.

For the molecule `Cc1ccc2c3ncn(Cc4ccco4)c(O)c-3nc2c1`, the EC50 in data set [5] was > 53 µM (inactive).

In the case of `O=C(Nc1cccc(C(F)(F)F)c1)c1cccnc1`, the EC50 in data set [1] is 4.39 µM (active); in data set [2] it was > 160 µM (inactive).

Consider `CCCC[C@H]1C[C@@H]1[C@@H]1N(P(=O)(c2ccccc2)c2ccccc2)[C@](CO)(c2ccccc2)CC12CC2`, for which the AC50 on Cytochrome P450 2C19 (read-out: AC50) is 7.94 µM (inconclusive).

Take `Cc1ccc(S(=O)(=O)c2nc(NCc3ccc4c(c3)OCO4)sc2Cl)cc1`: the EC50 in data set [3] was > 60 µM (not active); in data set [4], 0.39 µM (active).

Turning to `Cc1cccc(OCC(=O)N2CCC(N3CCCCCC3)CC2)c1`, at Cytochrome P450 2C19 (read-out: AC50), the AC50 was 39.8 µM (inconclusive).

In the case of `Cc1ccc(C)c(S(=O)(=O)NC(CC(C)C)C(=O)O)c1` (centres undefined), at Cytochrome P450 2C19 (read-out: AC50), the half-maximal activity concentration (AC50) was 39.8 µM (inconclusive).

With `CN1CCN(S(=O)(=O)c2ccc3ncc(C(=O)O)c(O)c3c2)CC1`, the AC50 at Cytochrome P450 2C19 (read-out: AC50) is 22.4 µM (inconclusive).

As for `O=C1NCCc2c1[nH]c1ccccc21`, the AC50 on Cytochrome P450 2C19 (read-out: AC50) is 15.8 µM (inconclusive).

With `COC(=O)c1[nH]c2ccccc2c1NC(=O)CN1CCCc2ccccc21`, the EC50 in data set [3] is > 60 µM (not active); in data set [4] it was 0.89 µM (active).

With `COc1cccc(CN(C(=O)c2cc3ccccc3oc2=O)C2CC2)c1`, the EC50 in data set [1] was > 38 µM (not active); in data set [2], 18.6 µM (inconclusive).

For `Brc1ccc(CSc2nnc(-c3cnccn3)n2Cc2ccco2)cc1`, the EC50 in data set [1] was 1.58 µM (active); in data set [2], > 160 µM (inconclusive).

`C=CCc1cccc(/C=N/NC(=O)c2ccccc2Br)c1O`: the figures for the EC50 in data set [3] and in data set [4] were 8.77 µM (active) and 1.72 µM (active), respectively.

Take `Cc1c(C(=O)Nc2cccc(Cl)c2)c2ccccn2c1CCc1ccncc1`: the EC50 in data set [3] is > 30 µM (not active); in data set [4], 1.19 µM (active).

As for `Cc1cc(Cl)ccc1OC(C)C(=O)Nc1ccccc1N1CCOCC1` (centres undefined), the EC50 in data set [5] was 6 µM (active).

With `Cc1nn(Cc2ccc(Cl)cc2)c(C)c1NC(=O)CCCn1nc([N+](=O)[O-])c(Cl)c1C`, the EC50 in data set [3] is > 30 µM (not active); in data set [4] it was 0.318 µM (active).

As for `COc1ccc(-n2c(=O)c(-c3cccs3)nc3cnc(Nc4ccccc4)nc32)cc1`, the AC50 on Cytochrome P450 1A2 was 31.6 µM (inconclusive).

Consider `CC1CCN(CCOc2cc(Cl)ccc2Cl)CC1`, for which the AC50 on Cytochrome P450 2C9 is 0.891 µM (inconclusive).

With `O=C(COC(=O)c1cnccn1)NCc1ccccc1`, the AC50 at Cytochrome P450 2C9 is 12.6 µM (inconclusive); at Cytochrome P450 2C19 (read-out: AC50) it was 39.8 µM (inconclusive).

Take `Cc1ccc(C(=O)N2CCN(c3cc(O)nnc3-c3ccccc3)CC2)cc1`: the AC50 at Cytochrome P450 2C9 is 31.6 µM (inconclusive).

On to `NC(=S)N/N=C/c1ccc(-n2nncc2-c2ccc(Cl)cc2)cc1`, for which the values for the EC50 in data set [3] and in data set [4] were > 60 µM (not active) and 1.64 µM (active), respectively.

On to `CC[N+](CC)(CC)CCOc1ccc(/C=C\c2ccccc2)cc1`, for which the AC50 on Cytochrome P450 1A2 is 31.6 µM (inconclusive).
